Key:
[1] = molecular target: T1, GSPT1-HiBiT protein in GSPT1-HiBiT HEK293 cells (Homo sapiens, UniProt P15170+Q96SW2); test: GSPT1 degradation assay using HiBiT system (Nano-Glo HiBiT lytic assay); type: cell-based; details: 6 hours treatment; for DC50: read-out: HiBiT lytic assay Geomean absolute DC50
T1 construct: endogenous in cells; host or cells: HEK293 (CRISPR/Cas9 knock-in of HiBiT at the GSPT1 locus)
Description: The effect of selected compounds of the invention on GSPT1 protein levels was investigated, using the GSPT1-HiBiT HEK293 cell line and the Nano-Glo HiBiT degradation assay protocol below.
GSPT1-HiBiT HEK293 cells were generated in-house using the HEK293 parental cells (ATCC, cat. no 70016364) and the CRISPR/Cas9 system. HEK293 cells were transformed with pSpCas9-BB-2A-Puro v2.0 plasmid carrying gRNA targeting the C-terminus of GSPT1 and ssODN template containing the HiBiT tag sequence with flanking homology sequences. Neon Transfection System (Thermo Fisher Scientific) was used for electroporation. HEK293 GSPT1-HiBiT cells were cultured with DMEM Glutamax (Gibco) supplemented with 10% heat inactivated FBS (Gibco). After transfection the culture medium was changed to DMEM Glutamax with 10% heat-inactivated FBS and 1% Penicillin-Streptomycin (Biowest) supplemented with Puromycin (2 μg/ml; Invivogen) for clonal selection. In order to isolate single cell clones for further validation and analysis, limiting dilution cloning in 96-well plates was performed. When the single clones reached confluency, HiBiT Lytic Assay (Promega) was performed in order to identify HiBiT positive clones. The clone selected for further studies was verified and validated using genotyping and HiBiT Blotting (Promega).
Cells were maintained in DMEM Glutamax medium, supplemented with 1% penicillin/streptomycin and 10% Fetal Bovine Serum (FBS) at 37° C., 5% CO2. Compounds were stored frozen as 20 mM DMSO stocks.
For the Nano-Glo HiBiT assay, cells were seeded onto 384-well white solid bottom plate at 2×10^3 cells/well in 40 μL using the Agilent BioTek MultiFlo FX Multimode Dispenser and incubated overnight. Following overnight incubation (37° C., 5% CO2) cells were treated with the test compounds and vehicle only (DMSO) control using the Echo 555 Liquid Handler. Twelve data-point compound titration curve with concentrations ranging from 10 μM to 0.03 nM was used. Final DMSO concentration was kept constant at 0.25% v/v across the assay plate. After 6 hours of incubation (37° C., 5% CO2), plates were removed from the incubator and let to equilibrate to RT. Luminescent signal detection was conducted using the Nano-Glo HiBiT Lytic Detection System (Promega, cat. nr N3050). Nano-Glo HiBiT Lytic Reagent was prepared freshly by diluting the LgBiT Protein (1:100 vol/vol) and the Nano-Glo HiBiT Lytic Substrate (1:50 vol/vol) in the relevant volume of the Nano-Glo HiBiT Lytic Buffer. 40 μL of the HiBiT Lytic Reagent was added per well, plates were shaken to facilitate lysis (350 rpm, 5 min, RT) and incubated in the dark for the following 10 min. Luminescence was read using the PHERAstar multimode plate reader (BMG LABTECH). The raw data (the relative luminescence unit values, RLU) were uploaded under the relevant protocol and analysed in CDDVault data management platform. Luminescence (RLU) values were normalized to the controls, and reported absolute DC50 values and Dmax values were calculated in CDDVault using non-linear regression and appropriate equations.

[2] = molecular target: T2, [IKZF2 ZF2]-[compound]-[CRBN/DDB1] ternary complex (Homo sapiens, UniProt Q96SW2+Q9UKS7); test: AlphaLISA assay for off-target recruitment detection, IKZF2 ZF2; type: binding; details: 1 μM compound; normalized to Helios modulator; read-out: Normalized ternary complex response, IKZF2 ZF2
T2 construct: IKZF2 ZF2
Description: (§1) The ability of the molecular glue compounds of the invention to mediate the proximity of CRBN with its known neo-substrates (shown in Table 3) was assessed using AlphaLISA to detect the formation of a [neo-substrate]-[compound of formula (I)]-[CRBN/DDB1] ternary complex.
(§2) Two types of protein solution were prepared: • neo-substrate, 40 μg/ml AlphaScreen Donor Beads (Table 3) in PBS (10 mM phosphate buffer, 137 mM NaCL, 2.7 mM KCl, pH 7.4) buffer supplemented with Tween-20 (Table 3) and 1 mM DTT, • 200 nM 6×His-CRBN/DDB1, 40 μg/ml AlphaLISA Anti-6×His Acceptor beads in PBS buffer with Tween-20 (Table 3) and 1 mM DTT.
(§3) The prepared solutions were incubated at room temperature for 30 min and then the solution containing the donor beads was mixed with the solution containing the acceptor beads.
(§4) The tested compounds were dispensed onto a white 384-well AlphaPlate 384 SW. DMSO was backfilled to all wells, resulting in a final DMSO content of 2%. Wells containing only DMSO served as background. Next, 10 μl of solution with donor and acceptor beads was added to the wells.
(§5) The plate was sealed with transparent film and shaken using a VibroTurbulator for 60 sec at room temperature, level 3. The plate was then spun down shortly (10 sec, 1000 rcf, room temperature) and incubated at 25° C. for 30 min.
(§6) The read-out was performed with PerkinElmer Enspire Multimode Plate Reader (method for AlphaLISA 384-well low volume, Filterset: λexc=680 nm, λem=615 nm).
(§7) The results were analyzed as follows: • 1) an average of luminescence for background signal was calculated and used as a negative control; • 2) an average of the maximum measured luminescence for reference compound (Table 3) was calculated and used as an internal positive control; • 3) raw luminescence values were normalized against positive and negative controls; • 4) Normalized responses to reference molecular glue were determined.

[3] = molecular target: [GSPT1]-[compound of formula (I)]-[CRBN/DDB1] complex (Homo sapiens, UniProt P15170+Q96SW2); test: AlphaLISA ternary complex formation assay (GSPT1); type: binding; details: 0.5 h; 1 μM compound; normalized to reference compound CC-885; read-out: Normalized AlphaLISA ternary complex average signal at 1 μM molecule
Description: The effect of the molecular glue compounds of the invention on the formation of a ternary complex composed of [GSPT1]-[compound of formula (I)]-[CRBN/DDB1] was investigated with two methods: AlphaLISA dose response assay or HTRF ternary complex assay.
Two types of protein solution were prepared: • 200 nM biotinylated GSPT1 (Table 3), 40 μg/ml AlphaScreen Streptavidin-coated Donor Beads in HBS (10 mM HEPES, 150 mM NaCL, pH 7.4) buffer with 0.1% Tween-20 and 1 mM DTT, • 200 nM 6×His-CRBN/DDB1, 40 μg/ml AlphaLISA Anti-6×His Acceptor beads in HBS buffer with 0.1% Tween-20 and 1 mM DTT.
as §3, §4, §5, §6
as §7, with “2)” for “2) an”, “(structure shown in Table 3 below)” for “(Table 3)”, “positive control” for “reference molecular glue”

[4] = molecular target: [CK1α]-[compound]-[CRBN/DDB1] ternary complex (Homo sapiens, UniProt P48729+Q96SW2); test: AlphaLISA assay for off-target recruitment detection, CK1α; type: binding; details: 1 μM compound; normalized to FPFT-2216; read-out: Normalized ternary complex response, CK1α
Description: as §1, §2, §3, §4, §5, §6, §7

T2 sequence (Q9UKS7 140-162 limits assumed): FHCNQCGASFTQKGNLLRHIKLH
T2 sequence (Q96SW2 whole entry): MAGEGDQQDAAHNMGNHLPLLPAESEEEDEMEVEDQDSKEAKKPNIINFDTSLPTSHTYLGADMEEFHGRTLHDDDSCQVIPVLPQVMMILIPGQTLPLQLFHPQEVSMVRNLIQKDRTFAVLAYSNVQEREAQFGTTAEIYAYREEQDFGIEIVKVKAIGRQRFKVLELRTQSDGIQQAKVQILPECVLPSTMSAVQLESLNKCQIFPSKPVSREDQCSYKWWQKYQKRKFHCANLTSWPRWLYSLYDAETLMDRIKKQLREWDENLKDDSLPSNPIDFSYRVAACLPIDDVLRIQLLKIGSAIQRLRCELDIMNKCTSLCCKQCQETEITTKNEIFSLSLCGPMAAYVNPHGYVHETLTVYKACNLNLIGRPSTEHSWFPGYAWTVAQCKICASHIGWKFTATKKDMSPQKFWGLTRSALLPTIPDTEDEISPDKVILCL
T2 sequence (Q16531 whole entry partner): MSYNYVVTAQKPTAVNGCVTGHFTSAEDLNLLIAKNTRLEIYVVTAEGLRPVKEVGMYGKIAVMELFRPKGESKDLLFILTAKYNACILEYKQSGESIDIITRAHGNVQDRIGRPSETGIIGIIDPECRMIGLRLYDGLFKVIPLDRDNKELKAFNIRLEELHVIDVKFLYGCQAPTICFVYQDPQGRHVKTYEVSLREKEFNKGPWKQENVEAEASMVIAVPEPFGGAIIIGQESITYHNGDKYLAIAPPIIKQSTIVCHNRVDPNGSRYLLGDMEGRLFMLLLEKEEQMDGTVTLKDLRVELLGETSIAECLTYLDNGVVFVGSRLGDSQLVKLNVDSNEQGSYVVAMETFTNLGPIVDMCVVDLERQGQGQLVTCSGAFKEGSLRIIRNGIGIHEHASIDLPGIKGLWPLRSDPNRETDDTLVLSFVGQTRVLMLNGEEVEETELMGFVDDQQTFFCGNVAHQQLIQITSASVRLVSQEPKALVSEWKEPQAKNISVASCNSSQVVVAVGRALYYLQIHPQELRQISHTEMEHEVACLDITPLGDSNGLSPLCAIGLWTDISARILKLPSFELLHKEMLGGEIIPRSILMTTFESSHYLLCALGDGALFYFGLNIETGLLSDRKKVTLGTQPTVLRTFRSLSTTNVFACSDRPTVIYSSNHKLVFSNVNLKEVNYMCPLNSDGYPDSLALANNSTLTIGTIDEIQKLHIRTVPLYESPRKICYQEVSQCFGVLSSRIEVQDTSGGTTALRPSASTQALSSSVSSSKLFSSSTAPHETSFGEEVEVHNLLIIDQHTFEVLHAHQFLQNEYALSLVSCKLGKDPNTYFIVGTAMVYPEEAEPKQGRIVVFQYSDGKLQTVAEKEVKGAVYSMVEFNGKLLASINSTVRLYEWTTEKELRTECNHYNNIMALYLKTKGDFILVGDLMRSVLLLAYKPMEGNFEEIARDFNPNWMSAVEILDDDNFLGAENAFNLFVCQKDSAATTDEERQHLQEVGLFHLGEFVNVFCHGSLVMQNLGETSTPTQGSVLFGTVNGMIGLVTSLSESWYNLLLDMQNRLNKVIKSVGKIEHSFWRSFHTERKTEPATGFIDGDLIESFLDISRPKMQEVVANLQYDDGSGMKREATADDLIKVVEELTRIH
[GSPT1]-[compound of formula (I)]-[CRBN/DDB1] complex, sequence (P15170 whole entry): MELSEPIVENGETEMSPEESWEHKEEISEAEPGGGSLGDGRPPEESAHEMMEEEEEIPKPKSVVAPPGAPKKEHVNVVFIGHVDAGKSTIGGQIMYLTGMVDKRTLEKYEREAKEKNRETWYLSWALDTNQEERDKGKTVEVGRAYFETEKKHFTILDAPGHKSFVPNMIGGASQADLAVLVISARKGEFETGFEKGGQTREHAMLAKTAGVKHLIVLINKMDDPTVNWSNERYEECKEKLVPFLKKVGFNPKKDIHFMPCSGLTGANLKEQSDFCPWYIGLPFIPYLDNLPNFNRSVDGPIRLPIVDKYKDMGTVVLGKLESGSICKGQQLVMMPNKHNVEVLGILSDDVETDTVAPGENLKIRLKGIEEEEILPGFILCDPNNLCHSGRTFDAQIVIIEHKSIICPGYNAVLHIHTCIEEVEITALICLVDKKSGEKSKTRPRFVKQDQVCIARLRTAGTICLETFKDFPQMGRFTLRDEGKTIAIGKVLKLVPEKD
[GSPT1]-[compound of formula (I)]-[CRBN/DDB1] complex, sequence (Q96SW2 whole entry): as the sequence (Q96SW2 whole entry) above
[GSPT1]-[compound of formula (I)]-[CRBN/DDB1] complex, sequence (Q16531 whole entry partner): as the sequence (Q16531 whole entry partner) above
T1 sequence (P15170 whole entry): as the sequence (P15170 whole entry) above
T1 sequence (Q96SW2 whole entry): as the sequence (Q96SW2 whole entry) above
T1 sequence (Q16531 whole entry partner): as the sequence (Q16531 whole entry partner) above
[CK1α]-[compound]-[CRBN/DDB1] ternary complex, sequence (P48729 whole entry): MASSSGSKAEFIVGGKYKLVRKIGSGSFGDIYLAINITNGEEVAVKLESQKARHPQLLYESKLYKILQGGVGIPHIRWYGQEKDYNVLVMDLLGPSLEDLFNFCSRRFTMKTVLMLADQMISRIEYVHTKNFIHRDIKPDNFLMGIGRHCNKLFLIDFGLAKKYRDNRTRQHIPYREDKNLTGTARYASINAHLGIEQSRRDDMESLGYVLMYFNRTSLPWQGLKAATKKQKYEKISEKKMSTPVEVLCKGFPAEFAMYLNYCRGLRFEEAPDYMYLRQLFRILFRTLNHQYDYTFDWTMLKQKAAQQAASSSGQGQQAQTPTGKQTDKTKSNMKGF
[CK1α]-[compound]-[CRBN/DDB1] ternary complex, sequence (Q96SW2 whole entry): as the sequence (Q96SW2 whole entry) above
[CK1α]-[compound]-[CRBN/DDB1] ternary complex, sequence (Q16531 whole entry partner): as the sequence (Q16531 whole entry partner) above

| SMILES | Dmax [1] | DC50 [1] | activation at 1 µM [2] | activation at 1 µM [3] | activation at 1 µM [4] |
| --- | --- | --- | --- | --- | --- |
| Cc1nc2cc(COC(=O)Nc3cc(C(C)(C)C)on3)ccc2cc1C1CCC(=O)NC1=O (stereo not shown) [Compound 70, (3-(2,6-dioxopiperidin-3-yl)-2-methylquinolin-7-yl)methyl (5-(tert-butyl)isoxazol-3-yl)carbamate] | ≥ 75% | < 10 nM | < 10% | > 50% | < 10% |
| Cc1nc2cc(COC(=O)Nc3ccc(C(F)(F)F)c(Cl)c3)ccc2cc1C1CCC(=O)NC1=O (stereo not shown) [Compound 18, (3-(2,6-dioxopiperidin-3-yl)-2-methylquinolin-7-yl)methyl (3-chloro-4-(trifluoromethyl)phenyl)carbamate] | ≥ 75% | 10 to 50 nM | < 10% | 10 to 50% | < 10% |
| Cc1nc2ccc(COC(=O)Nc3cc(C(C)(C)C)no3)cc2cc1N1CCC(=O)NC1=O [Compound 66, (3-(2,4-dioxotetrahydropyrimidin-1(2H)-yl)-2-methylquinolin-6-yl)methyl (3-(tert-butyl)isoxazol-5-yl)carbamate] | ≥ 75% | 10 to 50 nM | 10 to 25% | > 50% | 10 to 25% |
| Cc1nc2cc(COC(=O)Nc3cc(Cl)c(C)c(CN4CCOCC4)c3)ccc2cc1C1CCC(=O)NC1=O (stereo not shown) [Compound 17, (3-(2,6-dioxopiperidin-3-yl)-2-methylquinolin-7-yl)methyl (3-chloro-4-methyl-5-(morpholinomethyl)phenyl)carbamate] | ≥ 75% | < 10 nM | < 10% | 10 to 50% | < 10% |
| COc1ccc(NC(=O)OCc2ccc3cc(C4CCC(=O)NC4=O)c(C)nc3c2)cc1Cl (stereo not shown) [Compound 11, (3-(2,6-dioxopiperidin-3-yl)-2-methylquinolin-7-yl)methyl (3-chloro-4-methoxyphenyl)carbamate] | ≥ 75% | < 10 nM | < 10% | > 50% | < 10% |
| Cc1ccc(NC(=O)NCc2ccc3nc(C)c(N4CCC(=O)NC4=O)cc3c2)cc1Cl [Compound 51, 1-(3-chloro-4-methylphenyl)-3-((3-(2,4-dioxotetrahydropyrimidin-1(2H)-yl)-2-methylquinolin-6-yl)methyl)urea] | ≥ 75% | 10 to 50 nM | 10 to 25% | 10 to 50% | < 10% |
| COc1cnc(NC(=O)OCc2ccc3cc(C4CCC(=O)NC4=O)c(C)nc3c2)cn1 (stereo not shown) [Compound 59, (3-(2,6-dioxopiperidin-3-yl)-2-methylquinolin-7-yl)methyl (5-methoxypyrazin-2-yl)carbamate] | ≥ 75% | 10 to 50 nM | < 10% | > 50% | < 10% |
| Cc1ccc(NC(=O)OCc2ccc3nc(C)c(C4CCC(=O)NC4=O)cc3c2)cc1Cl (stereo not shown) [Compound 5, (3-(2,6-dioxopiperidin-3-yl)-2-methylquinolin-6-yl)methyl (3-chloro-4-methylphenyl)carbamate] |  |  | 10 to 25% | > 50% | < 10% |
| Cc1ccc(NC(=O)OCc2ccc3nc(C)c(N4CCC(=O)NC4=O)cc3c2)cc1Cl [Compound 29, (3-(2,4-dioxotetrahydropyrimidin-1(2H)-yl)-2-methylquinolin-6-yl)methyl (3-chloro-4-methylphenyl)carbamate] | ≥ 75% | 10 to 50 nM | < 10% | 10 to 50% | < 10% |
| Cc1nc2cc(COC(=O)Nc3cc(C(C)(C)C)n[nH]3)ccc2cc1C1CCC(=O)NC1=O (stereo not shown) [Compound 75, (3-(2,6-dioxopiperidin-3-yl)-2-methylquinolin-7-yl)methyl (3-(tert-butyl)-1H-pyrazol-5-yl)carbamate] | ≥ 75% | 10 to 50 nM | < 10% | > 50% | < 10% |
| Cc1ccc(NC(=O)OCc2ccc3cc(C4CCC(=O)NC4=O)c(C)nc3c2)c(Cl)c1Cl (stereo not shown) [Compound 54, (3-(2,6-dioxopiperidin-3-yl)-2-methylquinolin-7-yl)methyl (2,3-dichloro-4-methylphenyl)carbamate] | ≥ 75% | 10 to 50 nM | < 10% | > 50% | < 10% |
| Cc1nc2cc(COC(=O)Nc3cccc(OC(F)(F)F)c3)ccc2cc1C1CCC(=O)NC1=O (stereo not shown) [Compound 19, (3-(2,6-dioxopiperidin-3-yl)-2-methylquinolin-7-yl)methyl (3-(trifluoromethoxy)phenyl)carbamate] | ≥ 75% | < 10 nM | < 10% | 10 to 50% | < 10% |
| Cc1ccc(NC(=S)NCc2ccc3cc(C4CCC(=O)NC4=O)c(C)nc3c2)cc1Cl (stereo not shown) [Compound 2, 1-(3-chloro-4-methylphenyl)-3-((3-(2,6-dioxopiperidin-3-yl)-2-methylquinolin-7-yl)methyl)thiourea] |  |  | < 10% | 10 to 50% | < 10% |

— US20260232682A1, “GSPT1 DEGRADER COMPOUNDS” (Captor Therapeutics S.A., priority 2023, published 2026)
